Patent US12384771B2, “Pleuromutilin derivative containing thiazole-pyridine benzyl quaternary ammonium salt side chain and preparation method and use thereof” (SHAANXI UNIVERSITY OF SCIENCE AND TECHNOLOGY, priority 2022, dated 2025)
Counter-ions that a name gives are not always drawn.

Assays:
[1] = system: carbapenem-resistant Acinetobacter baumannii (CR-AB) 18-560; test: MIC, clinical drug-resistant bacteria; format: cell-based; settings: CR-AB 18-560, read-out: Minimum inhibitory concentration against clinical drug-resistant bacteria
Procedure: (§1) The minimum inhibitory concentration (MIC) of the pleuromutilin derivative containing thiazole-pyridine benzyl quaternary ammonium salt side chain was tested with moxifloxacin as a positive control (purchased from Shanghai Macklin Biochemical Technology Co., Ltd.) using a microbroth dilution method. At the same time, the pleuromutilin derivative containing thiazole-pyridine benzyl quaternary ammonium salt side chain of the invention was compared with the marketed pleuromutilin antibiotics, such as retapamulin (purchased from Nanjing Chemlin Chemical Industry Co., Ltd.), tiamulin (purchased from Shanghai Yuanye Bio-Technology Co., Ltd) and valnemulin (purchased from Shanghai Acmec Biochemical Co., Ltd), in order to screen out pleuromutilin derivatives with better activity.
(§2) Clinical resistant bacteria include multidrug-resistant Pseudomonas aeruginosa (MDR-PA) 18-993, 18-756 and 18-126, multidrug-resistant Klebsiella pneumoniae (MDR-KP) 18-893, 18-754 and 18-1482, methicillin-resistant Staphylococcus aureus (MRSA) 18-171, 18-209 and 18-575, vancomycin-resistant Enterococcus faecalis (VRE) 18-94, 18-80 and 18-507, and carbapenem-resistant Acinetobacter baumannii (CR-AB) 18-184, 18-560 and 18-882, all the clinical drug-resistant strains were from Huashan Hospital, Fudan University.

[2] = system: multidrug-resistant Pseudomonas aeruginosa (MDR-PA) 18-126; test: MIC, clinical drug-resistant bacteria; format: cell-based; settings: MDR-PA 18-126, read-out: Minimum inhibitory concentration against clinical drug-resistant bacteria
Procedure: as §1, §2

[3] = system: multidrug-resistant Pseudomonas aeruginosa (MDR-PA) 18-756; test: MIC, clinical drug-resistant bacteria; format: cell-based; settings: MDR-PA 18-756, read-out: Minimum inhibitory concentration against clinical drug-resistant bacteria
Procedure: as §1, §2

[4] = system: vancomycin-resistant Enterococcus faecalis (VRE) 18-507; test: MIC, clinical drug-resistant bacteria; format: cell-based; settings: VRE 18-507; read-out: Minimum inhibitory concentration against clinical drug-resistant bacteria
Procedure: as §1, §2

[5] = system: Mycoplasma gallisepticum R strain (MG-R); test: Anti-mycoplasma activity assay, MIC; format: cell-based; settings: Mycoplasmoides gallisepticum
Procedure: (§3) The minimum inhibitory concentration of the pleuromutilin derivative containing thiazole-pyridine benzyl quaternary ammonium salt side chain against different mycoplasmas was tested with tiamulin as (purchased from Shanghai Yuanye Bio-Technology Co., Ltd) a positive control using a microbroth dilution method, and the antibacterial effect of the compound against different mycoplasmas was evaluated.
(§4) Experimental strains include Mycoplasma hyopneumoniae standard strain J strain (Mhp-J; NCTC 10110), Mycoplasma hyopneumoniae clinical isolate LH strain (Mhp-LH), Mycoplasma hyorhini standard strain BTS-7 strain (Mhr-BTS-7; NCTC 10130), Mycoplasma gallisepticum R strain (MG-R) and Mycoplasma synoviae WVU1853 strain (MS-WVU1853; NCTC 10124) (purchased from National Collection of Type Cultures, United Kingdom).
(§5) The specific operation steps are as follows: • (1) preparation of KM2 medium: 38.9 g of KM2 medium (purchased from Guangdong Huankai Microbial Sci. & Tech. Co., Ltd.) was weighed, added to 800 mL of distilled water, boiled and dissolved, and autoclaved at 115° C. for 20 min for later use. • (2) preparation of bacterial liquid stock: 0.5 mL of each of Mycoplasma hyopneumoniae (Mhp), Mycoplasma hyorhina (Mhr), Mycoplasma gallisepticum (MG) and Mycoplasma synoviae (MS) was taken and transferred to 4.5 mL of KM2 liquid medium, and when the colour of the medium turned yellow, each of the bacteria was sub-packaged at 0.5 mL per tube, and stored as the bacterial liquid at −70° C. • (3) determination of bacterial liquid titre (colour change unit, CCU): 96-well plate method was used to measure the bacterial liquid titre. The preserved bacterial liquid stock was taken from −70° C., melt and equilibrated to room temperature. 0.18 mL of KM2 medium was added to each well of the middle 4 rows of the 96-well plate (that is, 4 parallels), 0.02 mL of the bacterial liquid stock was taken and added to the wells of the first column, respectively, and subjected to 10-fold dilution until 10^−11. A negative control containing only KM2 medium was set (column 12). The plate was sealed and put into an incubator at 37° C., and the results were observed day by day. The highest dilution at which the colour of the medium can change was the CCU/mL of the strain. • (4) determination of MIC: the minimum inhibitory concentration of the compound against mycoplasmas was determined by a microbroth dilution method. Each drug to be tested was prepared as a stock solution with a concentration of 2560 μg/mL, and each drug stock solution was 2-fold diluted with KM2 liquid medium, and the test concentration range was 0.015-128 μg/mL (large concentration gradient) and 0.000004-0.06 μg/mL (small concentration gradient). An appropriate amount of seed bacterial liquid was taken and diluted to 10^4 CCU/mL serially according to its titre. Drugs of various dilutions were added sequentially to the 96-well plate, and then an equal amount of diluted bacterial liquid was added. 200 μL of diluted mycoplasma liquid was set as a positive control, 200 μL of KM2 liquid culture medium was set as a negative control, and a solvent control group (10 μL of drug solvent+190 μL of mycoplasma liquid) was also set. Three parallels were set for each experiment. After all the culture plates were sealed, they were allowed to culture at 37° C. and observed daily, and the final MIC values were recorded. (See FIG. 22 for the MIC determination results of the representative compound 7 against 5 mycoplasma strains)

[6] = system: Mycoplasma hyopneumoniae clinical isolate LH strain (Mhp-LH); test: Anti-mycoplasma activity assay, MIC; format: cell-based; settings: Mesomycoplasma hyopneumoniae
Procedure: as §3, §4, §5

[7] = system: Mycoplasma hyopneumoniae standard strain J strain (Mhp-J; NCTC 10110); test: Anti-mycoplasma activity assay, MIC; format: cell-based; settings: Mesomycoplasma hyopneumoniae, NCTC10110
Procedure: as §3, §4, §5

[8] = system: Mycoplasma hyorhini standard strain BTS-7 strain (Mhr-BTS-7; NCTC 10130); test: Anti-mycoplasma activity assay, MIC; format: cell-based; settings: NCTC10130
Procedure: as §3, §4, §5

[9] = system: Mycoplasma synoviae WVU1853 strain (MS-WVU1853; NCTC 10124); test: Anti-mycoplasma activity assay, MIC; format: cell-based; settings: Mycoplasmopsis synoviae, NCTC10124
Procedure: as §3, §4, §5

[10] = Determination of solubility of compounds (HPLC); settings: thermodynamic from solid
Procedure: Experimental method: representative compounds 2, 4 and 7 were selected for solubility determination, and retapamulin hydrochloride was used as a control. 1 mg of each sample was taken and quantitatively dissolved in a 10 mL volumetric flask, and the absorption peak area was measured by a high-performance liquid chromatography; then, the saturated solutions of the representative compounds 2, 4 and 7 and the control drug retapamulin were diluted 10-fold, and the absorption peak area was determined by HPLC; their respective solubility was obtained by calculating the absorption peak area.
The experimental instrument was Shimadzu LC-16, the chromatographic column was Hypersil C18 ODS (4.6×250 mm×5 μm), the flow rate was 1.0 mL/min, the detection wavelength was 300 nm, and the mobile phase was 0.05 mol/L of aqueous acetic acid solution:acetonitrile=30:70.

MIC [1]: 64 µg/mL | MIC [2]: 8 µg/mL | MIC [3]: 32 µg/mL | MIC [4]: 64 µg/mL | MIC [5]: 0.004 µg/mL | MIC [6]: 0.002 µg/mL | MIC [7]: 0.004 µg/mL | MIC [8]: 0.008 µg/mL | MIC [9]: 0.015 µg/mL | solubility ([10]; organic solvent or mixture): 11300 µg/mL | solubility ([10]; pH 1.5, simulated gastric fluid): 3450 µg/mL | solubility ([10]; pH 7, water): 2540 µg/mL
SMILES: C=C[C@]1(C)C[C@@H](OC(=O)CSc2nc(-c3cc[n+](Cc4ccc([N+](=O)[O-])cc4)cc3)cs2)[C@]2(C)[C@H](C)CC[C@]3(CCC(=O)[C@H]32)[C@@H](C)[C@@H]1O [Compound 7, 1-(4-(nitro)benzyl)-4-(2-(8-hydroxy-4,7,9,12-tetramethyl-3-oxo-7-vinyldecahydro-4,9a-propancyclopent[8]cyclen-5-yl)oxy)-2-oxoethyl)thiazol-4-yl)pyridyl bromide salt]
